In patent US20120053534A1, “INTRAVAGINAL DEVICES COMPRISING ANTICHOLINERGIC AGENTS, AND METHODS OF MAKING THEREOF” (priority 2010, published 2012):

Experiment: in vivo
Settings: female, dog, plasma, po, 10 mg/day
Experimental: A study was conducted to determine the levels of oxybutynin and its active metabolite, N-desethyloxybutynin, present in plasma following oral and intravaginal administration of oxybutynin in dogs.
A 14 day study was conducted, where 8 young adult females were randomly assigned to 4 groups of 2 dogs each.

Cmax: ~17.9 ng/mL
Compound: CCN(CC)CC#CCOC(=O)C(O)(c1ccccc1)C1CCCCC1 (stereo not shown) [oxybutynin, 4-diethylaminobut-2-ynyl2-cyclohexyl-2-hydroxy-2-phenyl-ethanoate]
